From PubChem BioAssay (NCI)
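How tested: cells in 96-well plates exposed to compound for 48 hours at five concentrations. Definition used: TGI = concentration required for complete inhibition of growth.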

What was measured:
Experiment in all cases: NCI-60 cell line screen, 48 h
[1] = test system: MOLT-4 leukemia
[2] = test system: XF 498 CNS
[3] = test system: NCI-H23 lung
[4] = test system: A498 renal
[5] = test system: M14 melanoma
[6] = test system: MALME-3M melanoma
[7] = test system: SF-268 CNS
[8] = test system: HL-60(TB) leukemia
[9] = test system: CCRF-CEM leukemia
[10] = test system: OVCAR-3 ovarian
[11] = test system: EKVX NSCLC
[12] = test system: SK-MEL-28 melanoma
[13] = test system: M19-MEL melanoma
[14] = test system: SNB-19 CNS
[15] = test system: DLD-1 colon
[16] = test system: OVCAR-8 ovarian
[17] = test system: KM12 colon
[18] = test system: HCT-15 colon
[19] = test system: LOX IMVI melanoma
[20] = test system: SK-MEL-5 melanoma
[21] = test system: NCI-H460 lung
[22] = test system: U251 CNS
[23] = test system: SNB-75 CNS
[24] = test system: SW-620 colon
[25] = test system: HOP-62 NSCLC
[26] = test system: KM20L2 colon
[27] = test system: SK-OV-3 ovarian
[28] = test system: OVCAR-4 ovarian
[29] = test system: HOP-18 NSCLC
[30] = test system: K-562 leukemia
[31] = test system: COLO 205 colon
[32] = test system: UACC-257 melanoma
[33] = test system: UACC-62 melanoma
[34] = test system: IGROV1 ovarian
[35] = test system: SN12C renal
[36] = test system: ACHN renal
[37] = test system: CAKI-1 renal
[38] = test system: TK-10 renal
[39] = test system: HT29 colon
[40] = test system: LXFL 529 NSCLC
[41] = test system: RPMI-8226 leukemia
[42] = test system: SF-295 CNS
[43] = test system: DMS 114 small cell lung
[44] = test system: 786-0 renal
[45] = test system: A549 NSCLC
[46] = test system: SF-539 CNS
[47] = test system: UO-31 renal
[48] = test system: NCI-H522 lung
[49] = test system: DMS 273 small cell lung
[50] = test system: HOP-92 NSCLC
[51] = test system: SK-MEL-2 melanoma
[52] = test system: HCT-116 colon
[53] = test system: OVCAR-5 ovarian
[54] = test system: NCI-H226 lung
[55] = test system: SNB-78 CNS
[56] = test system: RXF 393 renal
[57] = test system: HCC-2998 colon
[58] = test system: SR leukemia

## c1cc2ccc1C1NCCCN1CCN1CCCNC1c1ccc(cc1)C1NCCCN1CCN1CCCNC21 (stereo unspecified)
[1]
  TGI: > 100 µM
[2]
  TGI: > 100 µM
[3]
  TGI: > 100 µM
[4]
  TGI: > 100 µM
[5]
  TGI: > 100 µM
[6]
  TGI: > 100 µM
[7]
  TGI: > 100 µM
[8]
  TGI: 67.8 µM
[9]
  TGI: > 100 µM
[10]
  TGI: > 100 µM
[11]
  TGI: > 100 µM
[12]
  TGI: > 100 µM
[13]
  TGI: > 100 µM
[14]
  TGI: > 100 µM
[15]
  TGI: > 100 µM
[16]
  TGI: > 100 µM
[17]
  TGI: > 100 µM
[18]
  TGI: > 100 µM
[19]
  TGI: > 100 µM
[20]
  TGI: > 100 µM
[21]
  TGI: > 100 µM
[22]
  TGI: > 100 µM
[23]
  TGI: > 100 µM
[24]
  TGI: 48.5 µM
[25]
  TGI: > 100 µM
[26]
  TGI: > 100 µM
[27]
  TGI: > 100 µM
[28]
  TGI: > 100 µM
[29]
  TGI: > 100 µM
[30]
  TGI: > 100 µM
[31]
  TGI: > 100 µM
[32]
  TGI: > 100 µM
[33]
  TGI: > 100 µM
[34]
  TGI: > 100 µM
[35]
  TGI: > 100 µM
[36]
  TGI: > 100 µM
[37]
  TGI: > 100 µM
[38]
  TGI: > 100 µM
[39]
  TGI: > 100 µM
[40]
  TGI: > 100 µM
[41]
  TGI: > 100 µM
[42]
  TGI: > 100 µM
[43]
  TGI: > 100 µM
[44]
  TGI: > 100 µM
[45]
  TGI: > 100 µM
[46]
  TGI: > 100 µM
[47]
  TGI: > 100 µM
[48]
  TGI: 97.9 µM
[49]
  TGI: > 100 µM
[50]
  TGI: > 100 µM
[51]
  TGI: > 100 µM
[52]
  TGI: > 100 µM
[53]
  TGI: > 100 µM

## O=c1/c(=C/c2ccc3c(c2)OCO3)sc2nnc(Cc3ccccc3)n12
[1]
  TGI: > 100 µM
[3]
  TGI: > 100 µM
[4]
  TGI: > 100 µM
[5]
  TGI: > 100 µM
[6]
  TGI: > 100 µM
[7]
  TGI: > 100 µM
[8]
  TGI: > 100 µM
[9]
  TGI: > 100 µM
[10]
  TGI: > 100 µM
[11]
  TGI: > 100 µM
[12]
  TGI: > 100 µM
[13]
  TGI: > 100 µM
[14]
  TGI: > 100 µM
[15]
  TGI: > 100 µM
[16]
  TGI: > 100 µM
[17]
  TGI: > 100 µM
[54]
  TGI: > 100 µM
[18]
  TGI: > 100 µM
[19]
  TGI: > 100 µM
[20]
  TGI: > 100 µM
[21]
  TGI: > 100 µM
[22]
  TGI: > 100 µM
[23]
  TGI: > 100 µM
[24]
  TGI: > 100 µM
[25]
  TGI: > 100 µM
[26]
  TGI: > 100 µM
[27]
  TGI: > 100 µM
[28]
  TGI: > 100 µM
[29]
  TGI: > 100 µM
[30]
  TGI: > 100 µM
[55]
  TGI: > 100 µM
[31]
  TGI: > 100 µM
[32]
  TGI: > 100 µM
[33]
  TGI: > 100 µM
[34]
  TGI: > 100 µM
[56]
  TGI: > 100 µM
[35]
  TGI: > 100 µM
[36]
  TGI: > 100 µM
[37]
  TGI: > 100 µM
[38]
  TGI: > 100 µM
[40]
  TGI: > 100 µM
[41]
  TGI: > 100 µM
[42]
  TGI: > 100 µM
[43]
  TGI: > 100 µM
[44]
  TGI: > 100 µM
[45]
  TGI: > 100 µM
[46]
  TGI: > 100 µM
[47]
  TGI: > 100 µM
[48]
  TGI: > 100 µM
[49]
  TGI: > 100 µM
[50]
  TGI: > 100 µM
[51]
  TGI: > 100 µM
[57]
  TGI: > 100 µM
[52]
  TGI: > 100 µM
[53]
  TGI: > 100 µM

## Cc1ccc(N2C(=O)/C(=C3\Sc4c(nc(C)n(C)c4=O)N3c3ccccc3)SC2=S)cc1
[58]
  TGI: > 100 µM
[1]
  TGI: > 100 µM
[2]
  TGI: > 100 µM
[3]
  TGI: > 100 µM
[4]
  TGI: 69 µM
[5]
  TGI: > 100 µM
[7]
  TGI: > 100 µM
[8]
  TGI: > 100 µM
[9]
  TGI: > 100 µM
[11]
  TGI: > 100 µM
[12]
  TGI: > 100 µM
[13]
  TGI: > 100 µM
[14]
  TGI: > 100 µM
[16]
  TGI: 91.3 µM
[17]
  TGI: > 100 µM
[54]
  TGI: 64.6 µM
[18]
  TGI: > 100 µM
[19]
  TGI: > 100 µM
[20]
  TGI: > 100 µM
[21]
  TGI: 44 µM
[22]
  TGI: > 100 µM
[23]
  TGI: 79.4 µM
[24]
  TGI: > 100 µM
[26]
  TGI: > 100 µM
[27]
  TGI: > 100 µM
[28]
  TGI: > 100 µM
[30]
  TGI: > 100 µM
[55]
  TGI: > 100 µM
[31]
  TGI: > 100 µM
[32]
  TGI: > 100 µM
[33]
  TGI: > 100 µM
[34]
  TGI: > 100 µM
[56]
  TGI: 53.9 µM
[35]
  TGI: > 100 µM
[36]
  TGI: > 100 µM
[37]
  TGI: > 100 µM
[38]
  TGI: > 100 µM
[39]
  TGI: > 100 µM
[40]
  TGI: > 100 µM
[41]
  TGI: > 100 µM
[42]
  TGI: > 100 µM
[43]
  TGI: 95.1 µM
[44]
  TGI: > 100 µM
[45]
  TGI: > 100 µM
[46]
  TGI: 33.7 µM
[47]
  TGI: > 100 µM
[48]
  TGI: > 100 µM
[49]
  TGI: > 100 µM
[50]
  TGI: > 100 µM
[51]
  TGI: > 100 µM
[57]
  TGI: > 100 µM
[52]
  TGI: > 100 µM
[53]
  TGI: > 100 µM

## COC(=O)Cc1cc(=O)oc2c1C(=O)CCC2
[1]
  TGI: > 100 µM
[2]
  TGI: > 100 µM
[3]
  TGI: > 100 µM
[4]
  TGI: > 100 µM
[5]
  TGI: > 100 µM
[6]
  TGI: > 100 µM
[7]
  TGI: > 100 µM
[8]
  TGI: > 100 µM
[9]
  TGI: > 100 µM
[10]
  TGI: > 100 µM
[11]
  TGI: > 100 µM
[12]
  TGI: > 100 µM
[13]
  TGI: > 100 µM
[14]
  TGI: > 100 µM
[15]
  TGI: > 100 µM
[16]
  TGI: > 100 µM
[17]
  TGI: > 100 µM
[54]
  TGI: > 100 µM
[18]
  TGI: > 100 µM
[19]
  TGI: > 100 µM
[20]
  TGI: > 100 µM
[21]
  TGI: > 100 µM
[22]
  TGI: > 100 µM
[23]
  TGI: > 100 µM
[24]
  TGI: > 100 µM
[25]
  TGI: > 100 µM
[26]
  TGI: > 100 µM
[27]
  TGI: > 100 µM
[28]
  TGI: > 100 µM
[30]
  TGI: > 100 µM
[55]
  TGI: > 100 µM
[31]
  TGI: > 100 µM
[32]
  TGI: > 100 µM
[33]
  TGI: > 100 µM
[34]
  TGI: > 100 µM
[56]
  TGI: > 100 µM
[35]
  TGI: > 100 µM
[36]
  TGI: > 100 µM
[37]
  TGI: > 100 µM
[38]
  TGI: > 100 µM
[39]
  TGI: > 100 µM
[40]
  TGI: > 100 µM
[41]
  TGI: > 100 µM
[42]
  TGI: > 100 µM
[43]
  TGI: > 100 µM
[44]
  TGI: > 100 µM
[45]
  TGI: > 100 µM
[46]
  TGI: > 100 µM
[47]
  TGI: > 100 µM
[48]
  TGI: > 100 µM
[49]
  TGI: > 100 µM
[50]
  TGI: > 100 µM
[51]
  TGI: > 100 µM
[57]
  TGI: > 100 µM
[52]
  TGI: > 100 µM
[53]
  TGI: > 100 µM

## COc1ccc2[nH]c3c(C)c4cc[n+](COC(=O)c5ccccc5)cc4c(C)c3c2c1
[58]
  TGI: 0.213 µM
[1]
  TGI: 0.584 µM
[2]
  TGI: 5.67 µM
[6]
  TGI: 7.06 µM
[7]
  TGI: 3.81 µM
[8]
  TGI: 4.13 µM
[9]
  TGI: 1.75 µM
[10]
  TGI: 5.27 µM
[14]
  TGI: 6.85 µM
[25]
  TGI: 24 µM
[27]
  TGI: 5.78 µM
[29]
  TGI: 0.312 µM
[30]
  TGI: 1.46 µM
[36]
  TGI: 5.97 µM
[37]
  TGI: > 100 µM
[38]
  TGI: 4.4 µM
[41]
  TGI: 1.7 µM
[42]
  TGI: 1.65 µM
[47]
  TGI: 5.68 µM
